Source: ChEMBL document CHEMBL5506050, “Discovery of Oral AMP-Activated Protein Kinase Activators for Treating Hyperlipidemia” (J Med Chem, 2024)
Activity calls are given as the source filed them. The calls are words filed in the database; no cut-off is given here.

Legend:
Mus musculus [1] = test: Effect on Sdf2l1 mRNA level in liver of diet-induced obese C57BL/6 mouse model harboring AMPKalpha LS-/- at 200 mg/kg, po for 4 weeks by GO analysis; type: functional, organism-based
Syrian golden hamster [2] = test: Lipid lowering effect on high-fat diet-fed golden hamster assessed as decrease in serum LDL-C level at 100 mg/kg, po qd administered via gavage measured after 4 weeks relative to control; type: functional, Mesocricetus auratus; set-up: scale not given: the % may be the effect or the level left
Mus musculus [3] = test: Downregulation of Syvn1 mRNA level in liver of high-fat diet-fed C57BL/6 mouse model at 200 mg/kg, po for 4 weeks by GO analysis; type: functional, organism-based
Mus musculus [4] = test: Effect on Cidea mRNA level in liver of diet-induced obese C57BL/6 mouse model harboring AMPKalpha LS-/- at 200 mg/kg, po for 4 weeks by GO analysis; type: functional, organism-based
Mus musculus [5] = test: Downregulation of Ccl2 mRNA level in liver of high-fat diet-fed C57BL/6 mouse model at 200 mg/kg, po for 4 weeks by GO analysis; type: functional, organism-based
[6] = biological target: AMP-activated protein kinase, AMPK; test: Binding affinity to truncated AMPK (unknown origin) assessed as dissociation constant by CD analysis; type: protein-complex assay, Homo sapiens
Mus musculus [7] = test: Downregulation of Ccr2 mRNA level in liver of high-fat diet-fed C57BL/6 mouse model at 200 mg/kg, po for 4 weeks by GO analysis; type: functional, organism-based
Syrian golden hamster [8] = test: Effect on food uptake in high-fat diet-fed golden hamster at 50 to 200 mg/kg, po qd administered via gavage measured after 4 weeks; type: functional, organism-based; conditions: Mesocricetus auratus, dose 50-200 mg/kg
Mus musculus [9] = test: Downregulation of Dnajb9 mRNA level in liver of high-fat diet-fed C57BL/6 mouse model at 200 mg/kg, po for 4 weeks by GO analysis; type: functional, organism-based
Syrian golden hamster [10] = test: Lipid lowering effect on high-fat diet-fed golden hamster assessed as decrease in serum TG level administered orally once daily via gavage measured after 4 weeks measured after 4 weeks; type: functional, organism-based; conditions: Mesocricetus auratus, dose 50-200 mg/kg, route po
Mus musculus [11] = test: Lipid lowering effect on high-fat diet-fed C57BL/6J mouse assessed as decrease in serum LDL-C level at 40 mg/kg/day, po administered via gavage measured after 7 days relative to control; type: functional; set-up: scale not given: the % may be the effect or the level left; conditions: time 7 day
[12] = Acute toxicity in golden hamster administered orally measured for 14 days; set-up: species or system Mesocricetus auratus; conditions: in vivo, route po, time 14 day
Syrian golden hamster [13] = test: Lipid lowering effect on high-fat diet-fed golden hamster harboring LDLR-/- assessed as decrease in serum LDL-C level at 200 mg/kg, po qd administered via gavage measured after 8 weeks relative to control; type: functional, Mesocricetus auratus; set-up: scale not given: the % may be the effect or the level left
[14] = Stability in human plasma assessed as compound remaining at 1 to 5 uM measured after 30 mins by LC-MS/MS analysis; type: ADME, cell-free; conditions: dose 1-5 µM, read-out: Stability
Rhesus monkey [15] = test: Lipid lowering effect in Rhesus monkey assessed as decrease in serum LDL-C level at 35 mg/kg, NG qd treated for 35 days followed by drug washout for 14 days relative to control; type: functional, Macaca mulatta; set-up: scale not given: the % may be the effect or the level left; conditions: time 35 day
Mus musculus [16] = test: Downregulation of Hspa5 mRNA level in liver of high-fat diet-fed C57BL/6 mouse model at 200 mg/kg, po for 4 weeks by GO analysis; type: functional, organism-based
Mus musculus [17] = test: Effect on Dnajb9 mRNA level in liver of diet-induced obese C57BL/6 mouse model harboring AMPKalpha LS-/- at 200 mg/kg, po for 4 weeks by GO analysis; type: functional, organism-based
[18] = AUC (0 to t) in female Rhesus monkey at 70 mg/kg, po or 7 mg/kg, iv measured for 36 hrs by LC-tandem MS analysis; type: ADME, organism-based, Macaca mulatta; conditions: in vivo
[19] = AUC (0 to t) in male Rhesus monkey at 70 mg/kg, po or 7 mg/kg, iv measured for 36 hrs by LC-tandem MS analysis; type: ADME, organism-based, Macaca mulatta; conditions: in vivo
[20] = Stability in human Caco-2 cells assessed as compound remaining at 10 ug/ml measured after 2 hrs by LC-MS/MS analysis; type: ADME, cell-based; conditions: at 10 µg/mL, read-out: Stability
Mus musculus [21] = test: Effect on Hspa5 mRNA level in liver of diet-induced obese C57BL/6 mouse model harboring AMPKalpha LS-/- at 200 mg/kg, po for 4 weeks by GO analysis; type: functional, organism-based
[22] = Half life in female Rhesus monkey at 70 mg/kg, po or 7 mg/kg, iv measured for 36 hrs by LC-tandem MS analysis; type: ADME, organism-based, Macaca mulatta; conditions: in vivo
[23] = Cmax in female Rhesus monkey at 70 mg/kg, po or 7 mg/kg, iv measured for 36 hrs by LC-tandem MS analysis; type: ADME, organism-based, Macaca mulatta; conditions: in vivo
Mus musculus [24] = test: Upregulation of Lepr mRNA level in liver of high-fat diet-fed C57BL/6 mouse model at 200 mg/kg, po for 4 weeks by GO analysis; type: functional, organism-based
Mus musculus [25] = test: Downregulation of Aacas mRNA level in liver of high-fat diet-fed C57BL/6 mouse model at 200 mg/kg, po for 4 weeks by GO analysis; type: functional, organism-based
[26] = Stability in human liver microsomes assessed as hepatic clearance at 1 uM measured for 60 mins in presence of NADPH by LC-MS/MS analysis; type: ADME, Microsome
Syrian golden hamster [27] = test: Effect on adipose tissue weight in high-fat diet-fed golden hamster at 50 to 200 mg/kg, po qd administered via gavage measured after 4 weeks; type: functional, organism-based; conditions: Mesocricetus auratus, dose 50-200 mg/kg
[28] = Stability in human liver microsomes assessed as […] at 1 uM measured for 60 mins in presence of NADPH by LC-MS/MS analysis; type: ADME, Microsome; conditions: read-out: QH
Syrian golden hamster [29] = test: Lipid lowering effect on high-fat diet-fed golden hamster assessed as decrease in ALT level in liver at 50 to 200 mg/kg, po qd administered via gavage measured after 4 weeks; type: functional, organism-based; conditions: Mesocricetus auratus, dose 50-200 mg/kg
[30] = biological target: AMP-activated protein kinase (AMPK) alpha-1/beta-1/gamma-1 (Homo sapiens) (UniProt P54619+Q9Y478+Q13131); test: Activation of AMPK alpha1/AMPKbeta1/AMPKgamma1 (unknown origin) using SAMS peptide as substrate assessed as relative enzyme activity at 10 uM incubated for 20 mins in presence of [gamma-32P]ATP by scintillation counter analysis; type: protein-complex assay; conditions: filed as activator
[31] = Stability in human Caco-2 cells assessed as compound remaining at 10 ug/ml measured after 3 hrs by LC-MS/MS analysis; type: ADME, cell-based; conditions: at 10 µg/mL, read-out: Stability
Rhesus monkey [32] = test: Lipid lowering effect in Rhesus monkey assessed as decrease in serum LDL-C level at 35 mg/kg, NG qd measured after 7 days; type: functional, organism-based; conditions: Macaca mulatta, time 7.0 day
Syrian golden hamster [33] = test: Lipid lowering effect on high-fat diet-fed golden hamster harboring LDLR-/- assessed as decrease in serum TC level at 200 mg/kg, po qd administered via gavage measured after 8 weeks relative to control; type: functional, Mesocricetus auratus; set-up: scale not given: the % may be the effect or the level left
Mus musculus [34] = test: Downregulation of Ptafr mRNA level in liver of high-fat diet-fed C57BL/6 mouse model at 200 mg/kg, po for 4 weeks by GO analysis; type: functional, organism-based
[35] = Oral bioavailability in female Rhesus monkey at 70 mg/kg measured for 36 hrs by LC-tandem MS analysis; type: ADME, organism-based, Macaca mulatta; conditions: in vivo
Mus musculus [36] = test: Effect on Ccl2 mRNA level in liver of diet-induced obese C57BL/6 mouse model harboring AMPKalpha LS-/- at 200 mg/kg, po for 4 weeks by GO analysis; type: functional, organism-based

AMP-activated protein kinase (AMPK) alpha-1/beta-1/gamma-1 (Homo sapiens), sequence (P54619 whole entry): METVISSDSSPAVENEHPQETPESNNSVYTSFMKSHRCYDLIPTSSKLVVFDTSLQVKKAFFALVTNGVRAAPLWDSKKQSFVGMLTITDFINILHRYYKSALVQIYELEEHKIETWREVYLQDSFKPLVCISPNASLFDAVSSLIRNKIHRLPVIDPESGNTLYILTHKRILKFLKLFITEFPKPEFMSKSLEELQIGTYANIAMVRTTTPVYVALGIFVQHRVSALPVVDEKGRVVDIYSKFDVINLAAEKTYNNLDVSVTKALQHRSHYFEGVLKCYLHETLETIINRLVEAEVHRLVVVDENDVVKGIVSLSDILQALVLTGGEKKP
AMP-activated protein kinase (AMPK) alpha-1/beta-1/gamma-1 (Homo sapiens), sequence (Q13131 whole entry partner): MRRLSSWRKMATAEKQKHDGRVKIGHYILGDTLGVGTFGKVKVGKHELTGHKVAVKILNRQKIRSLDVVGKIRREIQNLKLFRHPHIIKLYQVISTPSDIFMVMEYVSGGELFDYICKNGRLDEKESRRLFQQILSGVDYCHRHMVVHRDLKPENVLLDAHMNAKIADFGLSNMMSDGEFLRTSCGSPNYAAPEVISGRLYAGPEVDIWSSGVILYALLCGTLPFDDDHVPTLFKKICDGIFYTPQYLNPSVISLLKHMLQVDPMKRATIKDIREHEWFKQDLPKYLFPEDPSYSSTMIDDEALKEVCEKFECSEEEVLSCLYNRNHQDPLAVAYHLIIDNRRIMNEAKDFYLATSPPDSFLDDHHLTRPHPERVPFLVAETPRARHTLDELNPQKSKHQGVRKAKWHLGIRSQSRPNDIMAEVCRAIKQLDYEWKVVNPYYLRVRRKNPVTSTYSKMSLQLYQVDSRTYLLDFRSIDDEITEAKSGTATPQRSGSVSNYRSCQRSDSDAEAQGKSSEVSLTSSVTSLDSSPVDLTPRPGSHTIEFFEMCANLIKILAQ
AMP-activated protein kinase (AMPK) alpha-1/beta-1/gamma-1 (Homo sapiens), sequence (Q9Y478 2-270 partner limits assumed): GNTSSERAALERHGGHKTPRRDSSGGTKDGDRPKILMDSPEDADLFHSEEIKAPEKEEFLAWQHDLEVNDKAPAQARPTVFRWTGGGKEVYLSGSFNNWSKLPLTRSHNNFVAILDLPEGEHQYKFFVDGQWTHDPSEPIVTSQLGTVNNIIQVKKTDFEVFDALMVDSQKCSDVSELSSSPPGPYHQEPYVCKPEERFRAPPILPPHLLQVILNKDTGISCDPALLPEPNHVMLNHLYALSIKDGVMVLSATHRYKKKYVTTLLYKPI

## CC(=O)OC[C@H]1O[C@@H](n2cnc3c(Nc4cccc(O)c4)ncnc32)[C@H](OC(C)=O)[C@@H]1OC(C)=O
Mus musculus [1]
  Activity: inactive
Syrian golden hamster [2]
  Activity: 36.2%
Mus musculus [3]
  Activity: Active
Mus musculus [4]
  Activity: inactive
Mus musculus [5]
  Activity: Active
[6]
  Kd: 210 nM
Mus musculus [7]
  Activity: Active
Syrian golden hamster [8]
  Activity: inactive
Mus musculus [9]
  Activity: Active
Syrian golden hamster [10]
  Activity: Dose-Dependent Effect
Mus musculus [11]
  Activity: 32.6%
[12]
  LD50 at 336 h: > 20000 mg/kg
Syrian golden hamster [13]
  Activity: 43.1%
[14]
  remaining at 0.5 h, up to 5 µM: ~70%
Rhesus monkey [15]
  Activity: 4.83%
Mus musculus [16]
  Activity: Active
Mus musculus [17]
  Activity: inactive
[18]
  AUC(0-t) at 36 h: 102 ng·h/mL
[19]
  AUC(0-t) at 36 h: 109 ng·h/mL
[20]
  remaining at 2 h, 10 ug/ml: 63%
Mus musculus [21]
  Activity: inactive
[22]
  half-life: 4.15 h
[23]
  Cmax: 25.9 ng/mL
Mus musculus [24]
  Activity: Active
Mus musculus [25]
  Activity: Active
[26]
  CLhep predicted at 1 µM: 19.9 mL/min/kg
Syrian golden hamster [27]
  Activity: inactive
[28]
  hepatic extraction ratio at 1 h, 1 µM: > 0.7
Syrian golden hamster [29]
  Activity: Active
[30]
  Activity: 2.31
[31]
  remaining at 3 h, 10 ug/ml: 52%
Rhesus monkey [32]
  Activity: Active
Syrian golden hamster [33]
  Activity: 19%
Mus musculus [34]
  Activity: Active
[35]
  bioavailability: 3.75%
Mus musculus [36]
  Activity: inactive
